Laboratory results published in patent US20240090503A1, “FUNGICIDAL OXADIAZOLES AND THEIR MIXTURES” (FMC CORPORATION, priority 2020, published 2024).

Key:
[1] = test system: Puccinia recondita f. sp. tritici (the causal agent of wheat leaf rust); assay: Test C: preventive spray on wheat seedlings, wheat leaf rust, visual disease rating; assay type: in vivo; settings: wheat seedlings
Source text: (§1) General protocol for preparing test suspensions for Tests A-D: the test compounds were first dissolved in acetone in an amount equal to 3% of the final volume and then suspended at the desired concentration (in ppm) in acetone and purified water (50/50 mix by volume) containing 250 ppm of the surfactant PEG400 (polyhydric alcohol esters). The resulting test suspensions were then used in Tests A-D.
(§2) The test suspension was sprayed to the point of run-off on wheat seedlings. The following day the seedlings were inoculated with a spore suspension of Puccinia recondita f. sp. tritici; (the causal agent of wheat leaf rust) and incubated in a saturated atmosphere at 20° C. for 24 h, and then moved to a growth chamber at 20° C. for 6 days, after which time visual disease ratings were made.
(§3) The test results for Tests A-C presented in Table A below for compounds of Formula 1 illustrate the fungicidal activity of component (a) contributing to the plant disease control utility of compositions comprising component (a) in combination with component (b) according to the present invention. In the Table, a rating of 100 indicates 100% disease control and a rating of 0 indicates no disease control (relative to the controls). A dash (-) indicates the compound was not tested. The test suspensions were sprayed at the concentration listed in the column “Rate in ppm”, unless otherwise indicated. An asterisk “*” next to the rating indicates a 250 ppm test suspension was used, a double asterisk “**” next to the rating indicates a 100 ppm test suspension was used, and a triple asterisk “***” next to the rating indicates a 50 ppm test suspension was used.

[2] = test system: Phakopsora pachyrhizi (the causal agent of Asian soybean rust); assay: Test A: preventive spray on soybean seedlings, Asian soybean rust, visual disease rating; assay type: in vivo; settings: soybean seedlings
Source text: as §1
as §2, with “soybean” for “wheat”, “Phakopsora pachyrhizi” for “Puccinia recondita f. sp. tritici;”, “Asian soybean” for “wheat leaf”, “22°” for “20°”, “h” for “h,”, “8” for “6”
as §3

[3] = test suspension 10 ppm, 100 = 100% disease control, 0 = no control

Row | Structure (SMILES) | Test C disease control rating ([1]; test suspension 10 ppm) | Test A disease control rating [2, 3] | also measured
1 | COC(=O)c1cccc2cn(Cc3ccc(-c4noc(C(F)(F)F)n4)cc3)nc12 [compound 50] | 28% | 13% | –
2 | Cc1nn(Cc2ccc(-c3noc(C(F)(F)F)n3)cc2)c2ccc(Br)cc12 [compound 51] | 68% | 99% | –
3 | Cc1c2cc(Br)ccc2nn1Cc1ccc(-c2noc(C(F)(F)F)n2)cc1 [compound 52] | 80% | 99% | –
4 | FC(F)(F)c1nc(-c2ccc(Cn3ncc4c(Cl)cc(Br)cc43)cc2)no1 [compound 53] | 9% | 0% | –
5 | FC(F)(F)c1nc(-c2ccc(Cn3cc4c(Cl)cc(Br)cc4n3)cc2)no1 [compound 54] | 68% | 99% | –
6 | O=C(O)c1cnn(Cc2ccc(-c3noc(C(F)(F)F)n3)cc2)c1 [compound 55] | 99% | 100% | –
7 | CNC(=O)c1cnn(Cc2ccc(-c3noc(C(F)(F)F)n3)cc2)c1 [compound 61] | 100% | 100% | –
8 | CN(C)C(=O)c1cnn(Cc2ccc(-c3noc(C(F)(F)F)n3)cc2)c1 [compound 62] | 100% | 100% | –
9 | CC(C)NC(=O)c1cnn(Cc2ccc(-c3noc(C(F)(F)F)n3)cc2)c1 [compound 63] | 100% | 100% | –
10 | C=CCNC(=O)c1cnn(Cc2ccc(-c3noc(C(F)(F)F)n3)cc2)c1 [compound 64] | 100% | 100% | –
11 | N#CCNC(=O)c1cnn(Cc2ccc(-c3noc(C(F)(F)F)n3)cc2)c1 [compound 65] | 100% | 100% | –
12 | CCOC(=O)c1c(C)nn(Cc2ccc(-c3noc(C(F)(F)F)n3)cc2)c1C [compound 66] | – | – | Test C disease control rating ([1]; test suspension 255 ppm): 100%; Test A disease control rating ([2]; test suspension 255 ppm): 100%
13 | CCNC(=O)c1cnn(Cc2ccc(-c3noc(C(F)(F)F)n3)cc2)c1 [compound 67] | 99% | 100% | –
14 | CCCNC(=O)c1cnn(Cc2ccc(-c3noc(C(F)(F)F)n3)cc2)c1 [compound 68] | 100% | 100% | –
15 | O=C(NC1CC1)c1cnn(Cc2ccc(-c3noc(C(F)(F)F)n3)cc2)c1 [compound 69] | 100% | 100% | –
16 | FC(F)(F)c1nc(-c2ccc(Cn3ccc(Br)n3)s2)no1 [compound 72] | – | – | Test C disease control rating ([1]; test suspension 50 ppm): 100%; Test A disease control rating ([2]; test suspension 50 ppm): 99%
17 | CCOC(=O)c1cc(C)n(Cc2ccc(-c3noc(C(F)(F)F)n3)s2)n1 [compound 73] | 86% | 100% | –
18 | N#Cc1c(Br)cnn1Cc1ccc(-c2noc(C(F)(F)F)n2)s1 [compound 77] | – | – | Test C disease control rating ([1]; test suspension 50 ppm): 100%; Test A disease control rating ([2]; test suspension 50 ppm): 100%
19 | CC(C)(C)NC(=O)c1cnn(Cc2ccc(-c3noc(C(F)(F)F)n3)cc2)c1 [compound 78] | 100% | 100% | –
20 | CCOC(=O)c1cc(CC)n(Cc2ccc(-c3noc(C(F)(F)F)n3)cc2)n1 [compound 79] | 68% | 100% | –
21 | CCOC(=O)c1cc(C(C)C)n(Cc2ccc(-c3noc(C(F)(F)F)n3)cc2)n1 [compound 80] | 68% | 100% | –
22 | CCOC(=O)c1cc(CC)nn1Cc1ccc(-c2noc(C(F)(F)F)n2)cc1 [compound 81] | 0% | 100% | –
23 | CCOC(=O)c1cc(C(C)C)nn1Cc1ccc(-c2noc(C(F)(F)F)n2)cc1 [compound 82] | 0% | 0% | –
24 | FC(F)(F)c1nc(-c2ccc(Cn3ccc(Br)n3)cc2)no1 [compound 97] | – | – | Test C disease control rating ([1]; test suspension 50 ppm): 100%; Test A disease control rating ([2]; test suspension 50 ppm): 99%
25 | CC(C)(C)c1ccn(Cc2ccc(-c3noc(C(F)(F)F)n3)cc2)n1 [compound 98] | – | – | Test C disease control rating ([1]; test suspension 50 ppm): 68%; Test A disease control rating ([2]; test suspension 50 ppm): 99%
26 | Cc1nn(Cc2ccc(-c3noc(C(F)(F)F)n3)cc2)c2ccccc12 [compound 99] | 68% | 100% | –

Row | Structure (SMILES) | Test C disease control rating ([1]; test suspension 10 ppm) | Test A disease control rating [2, 3] | also measured
27 | Cc1cccc2c1cnn2Cc1ccc(-c2noc(C(F)(F)F)n2)cc1 [compound 100] | 86% | 100% | –
28 | Cc1cccc2cnn(Cc3ccc(-c4noc(C(F)(F)F)n4)cc3)c12 [compound 101] | – | – | Test C disease control rating ([1]; test suspension 50 ppm): 100%; Test A disease control rating ([2]; test suspension 50 ppm): 100%
29 | Cc1cccc2nn(Cc3ccc(-c4noc(C(F)(F)F)n4)cc3)cc12 [compound 102] | 99% | 100% | –
30 | Cc1cccc2cn(Cc3ccc(-c4noc(C(F)(F)F)n4)cc3)nc12 [compound 103] | 97% | 100% | –
31 | N#Cc1nn(Cc2ccc(-c3noc(C(F)(F)F)n3)cc2)c2ccccc12 [compound 104] | 68% | 100% | –
32 | N#Cc1cccc2c1cnn2Cc1ccc(-c2noc(C(F)(F)F)n2)cc1 [compound 105] | – | – | Test C disease control rating ([1]; test suspension 50 ppm): 100%; Test A disease control rating ([2]; test suspension 50 ppm): 100%
33 | N#Cc1ccc2c(cnn2Cc2ccc(-c3noc(C(F)(F)F)n3)cc2)c1 [compound 106] | – | – | Test C disease control rating ([1]; test suspension 50 ppm): 100%; Test A disease control rating ([2]; test suspension 50 ppm): 100%
34 | N#Cc1cccc2nn(Cc3ccc(-c4noc(C(F)(F)F)n4)cc3)cc12 [compound 107] | 90% | 100% | –
35 | N#Cc1ccc2nn(Cc3ccc(-c4noc(C(F)(F)F)n4)cc3)cc2c1 [compound 108] | – | – | Test C disease control rating ([1]; test suspension 50 ppm): 100%; Test A disease control rating ([2]; test suspension 50 ppm): 100%
36 | CCOC(=O)c1cc(C)nn1Cc1ccc(-c2noc(C(F)(F)F)n2)cc1 [compound 109] | – | – | Test C disease control rating ([1]; test suspension 50 ppm): 77%; Test A disease control rating ([2]; test suspension 50 ppm): 100%
37 | FC(F)(F)c1nc(-c2ccc(Cn3nc(Br)c4ccccc43)cc2)no1 [compound 112] | 0% | 92% | –
38 | FC(F)(F)c1nc(-c2ccc(Cn3nc4ccccc4c3Br)cc2)no1 [compound 113] | 0% | 99% | –
39 | Nc1ccc2c(cnn2Cc2ccc(-c3noc(C(F)(F)F)n3)cc2)c1 [compound 115] | 95% | 98% | –
40 | COc1ccc2c(C#N)n(Cc3ccc(-c4noc(C(F)(F)F)n4)cc3)nc2c1 [compound 121] | 0% | 87% | –
41 | COc1ccc2c(cnn2Cc2ccc(-c3noc(C(F)(F)F)n3)cc2)c1 [compound 126] | – | – | Test C disease control rating ([1]; test suspension 260 ppm): 100%; Test A disease control rating ([2]; test suspension 260 ppm): 100%
42 | Cc1cc(C(F)(F)F)n(Cc2ccc(-c3noc(C(F)(F)F)n3)cc2)n1 [compound 127] | 0% | 0% | –
43 | COc1ccc2nn(Cc3ccc(-c4noc(C(F)(F)F)n4)cc3)cc2c1 [compound 131] | 99% | 100% | –
44 | FC(F)(F)c1nc(-c2ccc(Cn3ccc4ccncc43)cc2)no1 [compound 135] | 0% | 96% | –
45 | FC(F)(F)c1nc(-c2ccc(Cn3ccc4cnccc43)cc2)no1 [compound 137] | 41% | 100% | –
46 | O=C(O)c1cc(C(=O)O)n(Cc2ccc(-c3noc(C(F)(F)F)n3)cc2)n1 [compound 140] | 0% | 0% | –
47 | COC(=O)c1c2ccccc2nn1Cc1ccc(-c2noc(C(F)(F)F)n2)cc1 [compound 141] | 88% | 100% | –
48 | CN(C)C(=O)c1nn(Cc2ccc(-c3noc(C(F)(F)F)n3)cc2)c2ccccc12 [compound 148] | 96% | 100% | –
49 | N#CC1CCN(Cc2ccc(-c3noc(C(F)(F)F)n3)cc2)C1 (centres unmarked) [compound 151] | – | – | Test C disease control rating ([1]; test suspension 50 ppm): 98%; Test A disease control rating ([2]; test suspension 50 ppm): 100%
50 | FC(F)(F)c1nc(-c2ccc(Cn3ncc4cnc(Cl)nc43)cc2)no1 [compound 152] | 100% | 100% | –
51 | CCOC(=O)c1cc(C(=O)OCC)n(Cc2ccc(-c3noc(C(F)(F)F)n3)cc2)n1 [compound 154] | – | – | Test C disease control rating ([1]; test suspension 50 ppm): 100%; Test A disease control rating ([2]; test suspension 50 ppm): 100%
52 | O=c1c2ccccc2sn1Cc1ccc(-c2noc(C(F)(F)F)n2)cc1 [compound 155] | 0% | 60% | –
